CC(CO)(CO)C(=O)O
solubility (mole fraction)
Settings	288.15 K	293.15 K	298.15 K	303.15 K	308.15 K	313.15 K	318.15 K	323.15 K	328.15 K
in DMF	0.163	0.171	0.177	0.184	0.191	0.201	0.21	0.218	0.225
in acetone	0.00255	0.00292	0.00366	0.004	0.00477	0.00564	0.00645	0.00753	0.00853
in ethanol	0.0117	0.0135	0.0155	0.0186	0.0214	0.0254	0.0293	0.0341	0.0386
in ethyl acetate	0.00042	0.00048	0.00056	0.00072	0.00096	0.00131	0.00163	0.00202	0.00253
in isopropanol	0.00755	0.00901	0.0114	0.0131	0.0164	0.0185	0.0209	0.0252	0.0306
in methanol	0.0223	0.0254	0.0288	0.0334	0.038	0.0436	0.0498	0.0566	0.0635
in methyl acetate	0.00052	0.00072	0.00094	0.00121	0.00149	0.00186	0.00234	0.00301	0.0041
in n-butanol	0.00666	0.00759	0.00911	0.0108	0.0132	0.0155	0.0181	0.0214	0.0257
in n-butyl acetate	0.00033	0.00038	0.00046	0.00053	0.00063	0.00075	0.00087	0.00098	0.00113
in n-propanol	0.00677	0.00775	0.00939	0.0111	0.0136	0.0161	0.0189	0.0226	0.027
in sec-butanol	0.0068	0.00792	0.00935	0.0112	0.014	0.0165	0.0191	0.0232	0.0277
in water	0.0133	0.0152	0.0169	0.0199	0.0231	0.0265	0.0305	0.0349	0.0414
